Ki data for 33 compounds are collected here from patent publication US11612606B2, “8-aminoisoquinoline compounds and uses thereof” (priority 2018, dated 2023).

As a reminder, the pKi is −log10 of the Ki, conventionally taken in molar units.

The target of the assay is HPK full length, T165E S171E (Homo sapiens (Human), UniProt Q92918, S171E/T165E). Nature of the assay: HPK1-FL HTRF enzymatic assay ("HTRF"). The assay is classed as biochemical. As to conditions: ATP 1 mM, read-out: HPK1 Ki. In outline:
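Full-length HPK1 (T165E/S171E) was preincubated 30 min with compound, then reacted 60 min with biotin-SLP-76 and 1 mM ATP. Phospho-SLP-76 was detected by HTRF (Eu-anti-pSLP76 antibody, SA-XL665) after a further 60 min.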
(In TR-FRET formats the signal depends on donor and acceptor labels being close together.)

pKi: −log10 of the molar value. Where a name gives a salt, the structure may show the parent alone.

Sequence of HPK full length, T165E S171E (Q92918 whole entry T165E/S171E, looked up): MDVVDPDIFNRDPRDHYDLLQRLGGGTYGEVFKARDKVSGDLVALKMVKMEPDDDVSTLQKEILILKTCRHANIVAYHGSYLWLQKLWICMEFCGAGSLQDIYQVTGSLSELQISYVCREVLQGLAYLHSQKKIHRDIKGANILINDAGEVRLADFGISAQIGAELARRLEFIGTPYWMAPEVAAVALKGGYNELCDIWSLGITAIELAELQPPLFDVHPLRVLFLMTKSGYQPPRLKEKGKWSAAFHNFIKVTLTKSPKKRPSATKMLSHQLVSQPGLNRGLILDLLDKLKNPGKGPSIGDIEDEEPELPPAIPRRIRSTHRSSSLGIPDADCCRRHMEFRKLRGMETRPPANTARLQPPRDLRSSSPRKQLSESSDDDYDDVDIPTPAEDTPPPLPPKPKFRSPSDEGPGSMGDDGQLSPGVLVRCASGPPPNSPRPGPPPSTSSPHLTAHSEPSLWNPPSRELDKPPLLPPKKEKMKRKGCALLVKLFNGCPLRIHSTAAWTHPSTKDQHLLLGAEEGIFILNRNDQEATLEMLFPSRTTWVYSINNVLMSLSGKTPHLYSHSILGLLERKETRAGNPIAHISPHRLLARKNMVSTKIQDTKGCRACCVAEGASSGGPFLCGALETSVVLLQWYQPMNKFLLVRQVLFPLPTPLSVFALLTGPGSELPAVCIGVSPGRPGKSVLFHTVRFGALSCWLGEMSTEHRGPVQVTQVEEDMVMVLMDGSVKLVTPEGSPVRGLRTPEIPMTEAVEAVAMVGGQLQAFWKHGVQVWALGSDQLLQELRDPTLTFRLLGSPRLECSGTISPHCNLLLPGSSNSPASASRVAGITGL

As for `Cc1c(-c2cc3cc(NC(=O)N[C@@H]4CC[C@H]4C#N)ncc3c(N)c2F)cnc2c1NCCO2` (relative stereo) [Compound 712ab, 1-(8-Amino-7-fluoro-6-(8-methyl-2,3-dihydro-1H-pyrido[2,3-b][1,4]oxazin-7-yl)isoquinolin-3-yl)-3-(trans-2-cyanocyclobutyl)urea], the pKi is over 10.89.
The result for `Cc1c(-c2cc3cc(NC(=O)O[C@@H]4CC(=O)N(C)C4)ncc3c(N)c2F)cnc2c1NCCC2` (single isomer, unassigned) [Compound 481b] reads 10.74; that for `Cc1c(-c2cc3cc(NC(=O)OC4C5CC4CN(C)C5)ncc3c(N)c2F)cnc2c1NCCO2` (stereo not drawn) [Compound 431, 3-Methyl-3-azabicyclo[3.1.1]heptan-6-yl (8-amino-7-fluoro-6-(8-methyl-2,3-dihydro-1H-pyrido[2,3-b][1,4]oxazin-7-yl)isoquinolin-3-yl)carbamate], 8.64; that for `CNc1cncc(-c2cc3cc(NC(=O)O[C@H]4C[C@](C)(O)C4)ncc3c(N)c2F)c1C` [Compound 527a, (1r,3r)-3-Hydroxy-3-methylcyclobutyl (8-amino-7-fluoro-6-(4-methyl-5-(methylamino)pyridin-3-yl)isoquinolin-3-yl)carbamate], 9.27.
With `Cc1c(-c2cc3cc(NC(=O)O[C@H]4COC[C@@H]4C)ncc3c(N)c2F)cnc2c1NC(=O)CO2` (single isomer, unassigned) [Compound 558a, hydrochloride] the figure was 9.05; with `CN[C@H]1C[C@H](OC(=O)Nc2cc3cc(-c4cnc5c(c4C)NCCO5)c(F)c(N)c3cn2)C1` [Compound 539a, (1r,3r)-3-(Methylamino)cyclobutyl (8-amino-7-fluoro-6-(8-methyl-2,3-dihydro-1H-pyrido[2,3-b][1,4]oxazin-7-yl)isoquinolin-3-yl)carbamate], over 10.89; with `Cc1c(-c2cc3cc(NC(=O)OC4CC5COCC(C4)N5C)ncc3c(N)c2F)cnc2c1NCCO2` (stereo not drawn) [Compound 406, 9-Methyl-3-oxa-9-azabicyclo[3.3.1]nonan-7-yl (8-amino-7-fluoro-6-(8-methyl-2,3-dihydro-1H-pyrido[2,3-b][1,4]oxazin-7-yl)isoquinolin-3-yl)carbamate], 9.40.
As to `COCCN1CC(OC(=O)Nc2cc3cc(-c4cnc5c(c4C)NCCO5)c(F)c(N)c3cn2)C1` [Compound 474, 1-(2-Methoxyethyl)azetidin-3-yl (8-amino-7-fluoro-6-(8-methyl-2,3-dihydro-1H-pyrido[2,3-b][1,4]oxazin-7-yl)isoquinolin-3-yl)carbamate], the pKi was 10.22.
With `Cc1c(-c2cc3cc(NC(=O)OC4CC5(C4)CN(C)C5)ncc3c(N)c2F)cnc2c1NCCO2` [Compound 417, 2-Methyl-2-azaspiro[3.3]heptan-6-yl (8-amino-7-fluoro-6-(8-methyl-2,3-dihydro-1H-pyrido[2,3-b][1,4]oxazin-7-yl)isoquinolin-3-yl)carbamate] the figure was over 10.89; with `Cc1c(-c2cc3cc(NC(=O)N[C@@H]4CCOC4)ncc3c(N)c2F)cnc2c1NCCC2` [Compound 719a, (R)-1-(8-Amino-7-fluoro-6-(4-methyl-5,6,7,8-tetrahydro-1,5-naphthyridin-3-yl)isoquinolin-3-yl)-3-(tetrahydrofuran-3-yl)urea], 10.80.
The result for `Cc1c(-c2cc3cc(NC(=O)O[C@H]4CN(C)C[C@H]4F)ncc3c(N)c2F)cnc2c1NCCO2` [Compound 452c, (3S,4R)-4-Fluoro-1-methylpyrrolidin-3-yl (8-amino-7-fluoro-6-(8-methyl-2,3-dihydro-1H-pyrido[2,3-b][1,4]oxazin-7-yl)isoquinolin-3-yl)carbamate] reads 9.77.
With `Cc1c(-c2cc3cc(NC(=O)O[C@H]4[C@@H]5CN(C)C[C@@H]54)ncc3c(N)c2F)cnc2c1NCCO2` [Compound 432a, (1R,5S,6s)-3-Methyl-3-azabicyclo[3.1.0]hexan-6-yl (8-amino-7-fluoro-6-(8-methyl-2,3-dihydro-1H-pyrido[2,3-b][1,4]oxazin-7-yl)isoquinolin-3-yl)carbamate] the figure was over 10.89; with `CO[C@@H]1COCC[C@@H]1OC(=O)Nc1cc2cc(-c3cnc4c(c3C)NCCO4)c(F)c(N)c2cn1` (single isomer, unassigned) [Compound 583c], 10.00.
With `CC[C@@H]1COC[C@H]1OC(=O)Nc1cc2cc(-c3cnc4c(c3C)NCCO4)c(F)c(N)c2cn1` (single isomer, unassigned) [Compound 515a], the pKi is 9.98.
The result for `Cc1c(-c2cc3cc(NC(=O)O[C@@H]4COC[C@H]4F)ncc3c(N)c2F)cnc2c1NCCO2` [Compound 477a, (3R,4R)-4-Fluorotetrahydrofuran-3-yl (8-amino-7-fluoro-6-(8-methyl-2,3-dihydro-1H-pyrido[2,3-b][1,4]oxazin-7-yl)isoquinolin-3-yl)carbamate] reads 10.47.
The result for `Cc1c(-c2cc3cc(NC(=O)N(C)C)ncc3c(N)c2F)cnc2c1NCCO2` [Compound 742, 3-(8-Amino-7-fluoro-6-(8-methyl-2,3-dihydro-1H-pyrido[2,3-b][1,4]oxazin-7-yl)isoquinolin-3-yl)-1,1-dimethylurea] reads 8.95; that for `Cc1c(-c2cc3cc(NC(=O)O[C@H]4C[C@@H](O)C4)ncc3c(N)c2F)cnc2c1NC[C@@H]1C[C@H]21` (single isomer, unassigned) [Compound 584a], 9.85; that for `Cc1c(-c2cc3cc(NC(=O)O[C@H]4[C@@H]5CN(C(C)C)C[C@@H]54)ncc3c(N)c2F)cnc2c1NCCO2` [Compound 499a, (1R,5S,6s)-3-Isopropyl-3-azabicyclo[3.1.0]hexan-6-yl (8-amino-7-fluoro-6-(8-methyl-2,3-dihydro-1H-pyrido[2,3-b][1,4]oxazin-7-yl)isoquinolin-3-yl)carbamate], over 10.89.
On to `Cc1c(-c2cc3cc(NC(=O)O[C@@H]4CO[C@]5(CCN(C)C5)C4)ncc3c(N)c2F)cnc2c1NCCO2` (single isomer, unassigned) [Compound 467c], for which the negative logarithm of the Ki (pKi) is 10.57.
`Cc1c(-c2cc3cc(NC(=O)O[C@H]4CO[C@]5(CCN(C)C5)C4)ncc3c(N)c2F)cnc2c1NCCO2` (relative stereo) [Compound 467b, (3R,5R)-7-Methyl-1-oxa-7-azaspiro[4.4]nonan-3-yl(8-amino-7-fluoro-6-(8-methyl-2,3-dihydro-1H-pyrido[2,3-b][1,4]oxazin-7-yl)isoquinolin-3-yl)carbamate]: the pKi is 10.19.
The result for `Cc1c(-c2cc3cc(NC(=O)OC4CC5(C4)CN(C4COC4)C5)ncc3c(N)c2F)cnc2c1NCCO2` [Compound 443, 2-(Oxetan-3-yl)-2-azaspiro[3.3]heptan-6-yl (8-amino-7-fluoro-6-(8-methyl-2,3-dihydro-1H-pyrido[2,3-b][1,4]oxazin-7-yl)isoquinolin-3-yl)carbamate] reads over 10.89.
With `CO[C@@H]1COCC[C@H]1OC(=O)Nc1cc2cc(-c3cnc4c(c3C)NCCO4)c(F)c(N)c2cn1` (single isomer, unassigned) [Compound 583d] the figure was 9.14; with `Cc1c(-c2cc3cc(NC(=O)OC4CC5(CCN(C)CC5)C4)ncc3c(N)c2F)cnc2c1NCCC2` [Compound 423, (7-Methyl-7-azaspiro[3.5]nonan-2-yl) N-[8-amino-7-fluoro-6-(4-methyl-5,6,7,8-tetrahydro-1,5-naphthyridin-3-yl)-3-isoquinolyl]carbamate], over 10.89.
For `Cc1c(-c2cc3cc(NC(=O)O[C@H](C)CN(C)C)ncc3c(N)c2F)cnc2c1NCCO2` (single isomer, unassigned) [Compound 523a], the negative logarithm of the Ki (pKi) is 9.07.
With `CC(=O)N1CC2(CC(NC(=O)Nc3cc4cc(-c5cnc6c(c5C)NCCO6)c(F)c(N)c4cn3)C2)C1` [Compound 709, 1-(2-Acetyl-2-azaspiro[3.3]heptan-6-yl)-3-(8-amino-7-fluoro-6-(8-methyl-2,3-dihydro-1H-pyrido[2,3-b][1,4]oxazin-7-yl)isoquinolin-3-yl)urea] the figure was over 10.89.
Take `Cc1c(-c2cc3cc(NC(=O)O[C@H]4CCO[C@@H]4C)ncc3c(N)c2F)cnc2c1NCCO2` (single isomer, unassigned) [Compound 510b]: the pKi is 9.51.
Take `Cc1c(-c2cc3cc(NC(=O)OC4CC5(CCN(C)C5)C4)ncc3c(N)c2F)cnc2c1NCCO2` (stereo not drawn) [Compound 428, 6-Methyl-6-azaspiro[3.4]octan-2-yl (8-amino-7-fluoro-6-(8-methyl-2,3-dihydro-1H-pyrido[2,3-b][1,4]oxazin-7-yl)isoquinolin-3-yl)carbamate]: the pKi is over 10.89.
With `Cc1c(-c2cc3cc(NC(=O)OC4CN(C)C4)ncc3c(N)c2F)cnc2c1NCCO2` [Compound 402, 1-Methylazetidin-3-yl (8-amino-7-fluoro-6-(8-methyl-2,3-dihydro-1H-pyrido[2,3-b][1,4]oxazin-7-yl)isoquinolin-3-yl)carbamate] the figure was 9.96; with `Cc1c(-c2cc3cc(NC(=O)O[C@@H]4CN(C)C(=O)C4(C)C)ncc3c(N)c2F)cnc2c1NCCO2` (single isomer, unassigned) [Compound 480a], 10.47; with `Cc1c(-c2cc3cc(NC(=O)OC4CCOCC4)ncc3c(N)c2F)cnc2c1NCC[C@@H]2C` (single isomer, unassigned) [Compound 461b], 9.00.
The result for `Cc1c(-c2cc3cc(NC(=O)N[C@@H]4CCN(C)C[C@H]4F)ncc3c(N)c2F)cnc2c1NCCO2` (single isomer, unassigned) [Compound 703a] reads 10.66; that for `Cc1c(-c2cc3cc(NC(=O)O[C@@H]4CN(C)C[C@H]4C)ncc3c(N)c2F)cnc2c1NCCO2` (single isomer, unassigned) [Compound 442c], 9.81; that for `Cc1c(-c2cc3cc(NC(=O)O[C@@H]4CCN(CC(F)F)C[C@@H]4F)ncc3c(N)c2F)cnc2c1NCCO2` (single isomer, unassigned) [Compound 566a], 9.53.
